{"source": "patent US7550613B2", "about": "“Compounds” (Pronova Biopharma Norge AS, priority 2005, dated 2009)", "key": {"[1]": {"test": "Body weight and food consumption during 2 weeks of diet intervention after 8 weeks of HF diet", "format": "in vivo, adipose prone mice of the C57BL/6J strain", "details": "FIG. 10; last 2 weeks of experimental diets after 8 weeks HF diet; PRBs 1.5% of fat content, rosiglitazone 100 mg/KG diet", "procedure": "The animals (n=8 in each group) were fed high fat diet (fat constituting 60% of total calories, the same diet as used in Block 5) for 8 weeks. Thereafter they were given the PRBs in a dose of 1.5% of the fat content of the diet for another two weeks. The rosiglitazone group was given an amount of 100 mg/KG diet. The control groups continued with either only high fat diet or standard chow."}, "PPARα receptor": {"biological_target": "T1, PPARα receptor (Rattus norvegicus, UniProt P37230)", "T1 construct": "host or cells: rat liver cells", "T1 sequence (P37230 1-468)": "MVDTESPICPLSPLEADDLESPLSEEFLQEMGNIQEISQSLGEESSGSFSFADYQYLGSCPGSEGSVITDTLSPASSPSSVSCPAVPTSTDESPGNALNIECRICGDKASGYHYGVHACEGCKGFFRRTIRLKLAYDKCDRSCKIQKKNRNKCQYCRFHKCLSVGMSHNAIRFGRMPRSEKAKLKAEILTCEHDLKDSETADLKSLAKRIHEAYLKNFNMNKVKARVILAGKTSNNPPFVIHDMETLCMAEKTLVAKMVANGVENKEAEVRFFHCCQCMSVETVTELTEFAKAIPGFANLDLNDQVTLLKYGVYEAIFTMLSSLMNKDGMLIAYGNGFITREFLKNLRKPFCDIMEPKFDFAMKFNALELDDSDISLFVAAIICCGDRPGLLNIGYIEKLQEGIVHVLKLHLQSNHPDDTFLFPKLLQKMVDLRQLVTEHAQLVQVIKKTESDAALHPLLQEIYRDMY", "details": "rat liver cells (Pawar & Jump 2003); cited from earlier work"}, "[2]": {"details": "Vaagenes 1999; cited from earlier work"}, "[3]": {"test": "Effect of DHA derivatives in adipose prone mice during 4 months of dietary interventions (Example 5a)", "format": "in vivo, male C57BL/6 mice", "parameters": "AUC: unit not given beside the values", "details": "for Insulin: plasma", "procedure": "All experiments were performed on male C57BL/6 mice, either a substrain C57BL/N (supplier: Charles River, Germany, n=160, experiments A-C, see below), or a substrain C57BL/6J (supplier: the Jackson laboratory, Bar Harbor, Me., USA, n=32, experiment D). Total numbers of animals used were higher (n=170 and 36, respectively), because of culling. In the latter case, animals were bred for several generations (<20) at the Institute of Physiology. At the beginning of the treatment, animals were 14-week-old and their body weight range was 23.6-27.1 g. One week before the study start, animals were sorted according to their body weight and assigned to subgroups (n=8) of similar mean body weight. This method allowed for culling of about 5-10% of animals showing the lowest and highest body weight, respectively. The animals eliminated from the study at this stage were sacrificed by cervical dislocation. Complete health check of mice was performed by the supplier Charles River and at the start of study serological tests were performed by ANLAB (Prague, Czech Republic). In addition, regular health checks were performed in the animal house in 3-mo-intervals using sentinel mice and serological examinations (ANLAB). In all the tests, the animals were free of specific pathogens.\n• (i) Chow diet (ssniff R/M-H from SSNIFF Spezialdieten Gmbh, Soest, Germany; see also http://ssniff.de) with protein, fat and carbohydrate forming 33, 9, and 58 energy %, respectively • (ii) High-fat diet prepared in the laboratory (cHF diet) with protein, fat and carbohydrate forming 15, 59, and 26 energy %, respectively, and well characterized fatty acid composition (with most of the lipids coming from corn oil; see Ruzickova 2004) • (iii) cHF diets in which 0.15, 0.5, and 1.5% of fat (specifically the corn oil constituent) was replaced by various PRB-compounds, namely PRB1, PRB2, PRB5, PRB7, and PRB8, or by DHA. All these compounds were in the form of ethyl esters, provided by Pronova Biocare a.s. in sealed containers. Chemical composition of the PRB-compounds was unknown to the laboratory performing the experiments (Institute of Physiology, Academy of Sciences Prague, Czech Republic).\nThe study was based on 4 individual experiments. In each of the experiments, different PRB-compounds (or DHA, respectively) admixed to cHF diet in three different concentrations (0.15, 0.5, and 1.5% of the fat content) were tested. In each experiment, a subgroup of plain cHF diet-fed mice was included and served as a control. Mice were caged in groups of 4 and fed standard chow diet until 3 mo of age, when animals (n=8-13) were randomly assigned to the different test diets. After 2 mo on this new diet (at 5 mo of age), animals were fasted overnight and in the morning, intraperitoneal Glucose Tolerance Test (GTT) was performed. Animals were sacrificed after 4 months on the experimental diets, at 7 mo of age, and the end-point analysis were performed."}, "PPARγ": {"biological_target": "T2, PPARγ (Homo sapiens, UniProt P37231)", "T2 construct": "For full length PPAR transfection studies, each well received 5 μg reporter construct; expressed in transfected cells; host or cells: COS-1 cells", "T2 sequence (P37231 1-505)": "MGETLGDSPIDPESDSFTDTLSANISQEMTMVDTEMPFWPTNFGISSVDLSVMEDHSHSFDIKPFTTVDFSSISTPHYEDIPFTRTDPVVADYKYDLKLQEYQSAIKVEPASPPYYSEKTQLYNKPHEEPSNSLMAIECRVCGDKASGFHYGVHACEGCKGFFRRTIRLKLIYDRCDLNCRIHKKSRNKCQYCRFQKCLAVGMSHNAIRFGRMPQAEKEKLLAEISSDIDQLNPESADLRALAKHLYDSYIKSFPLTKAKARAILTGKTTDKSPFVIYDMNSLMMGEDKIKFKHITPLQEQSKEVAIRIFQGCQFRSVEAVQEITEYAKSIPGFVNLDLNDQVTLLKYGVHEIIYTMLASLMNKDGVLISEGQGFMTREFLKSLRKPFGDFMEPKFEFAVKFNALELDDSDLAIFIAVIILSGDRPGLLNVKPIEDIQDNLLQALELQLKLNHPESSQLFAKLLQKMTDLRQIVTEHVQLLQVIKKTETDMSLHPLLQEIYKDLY", "test": "Affinity testing in transfected cells (release of luciferase)", "format": "cell-based", "details": "FIG. 8; 10 μM of PRBs", "procedure": "Release of luciferase is correlated to transcription of genes. Binding of a ligand to a nuclear receptor such as PPARγ induces transcription of the respective gene thereby releasing luciferase. This technique therefore provides a measure of ligand affinity to the receptor as well as activation of the responsible gene.\nTransient transfection of COS-1 cells was performed in 6-well plates as described by Graham and van der Eb (Graham). For full length PPAR transfection studies, each well received 5 μg reporter construct, 2.5 μg pSV-β-galactosidase as an internal control, 0.4 μg pSG5-PPARγ2. The cells were harvested after 72 h, and the luciferase activity was measured according to the protocol (Promega). The luciferase activity was normalised against β-galactosidase activity. The adipocytes were transfected at D11 of differentiation using 16 μl LipofectaminPlus reagent, 4 μl Lipofectamine (Life Technologies Inc.), 0.2 μg pSG5-PPARγ, and 100 ng pTK Renilla luciferase as control of transfection afficiency. […] The luciferase activities were measured as recommended by the manufacturer (Dual Luciferase assay, Promega). […]\nFatty acids (BRL or DHA) and PRBs (stock solutions) were solubilized to 0.1 M final concentration in DMSO. […] Luciferase activity was measured using a luminometer (TD-20/20 luminometer; Turner Designs, Sunnycvale, Calif.) and normalized against protein content."}, "PPARα": {"biological_target": "T3, PPARα (Homo sapiens, UniProt Q07869)", "T3 sequence (Q07869 1-468)": "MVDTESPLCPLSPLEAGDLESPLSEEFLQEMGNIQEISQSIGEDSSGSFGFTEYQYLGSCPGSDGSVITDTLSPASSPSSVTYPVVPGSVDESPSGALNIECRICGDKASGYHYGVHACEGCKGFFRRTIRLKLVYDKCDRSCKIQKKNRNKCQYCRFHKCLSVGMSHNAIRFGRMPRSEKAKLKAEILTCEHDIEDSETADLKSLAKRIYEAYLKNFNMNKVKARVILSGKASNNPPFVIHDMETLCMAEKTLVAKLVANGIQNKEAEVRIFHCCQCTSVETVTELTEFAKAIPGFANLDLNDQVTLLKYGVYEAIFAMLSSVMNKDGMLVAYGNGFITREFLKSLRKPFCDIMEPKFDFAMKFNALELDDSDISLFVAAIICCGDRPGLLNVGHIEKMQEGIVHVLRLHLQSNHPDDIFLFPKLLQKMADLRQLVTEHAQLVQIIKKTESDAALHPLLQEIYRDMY", "details": "Larsen 2005; cited from earlier work"}, "platelet aggregation [4]": {"tested_on": "platelet aggregation", "details": "in vitro (Larsen 1998); cited from earlier work"}, "platelet aggregation [5]": {"tested_on": "platelet aggregation", "details": "in vivo (Willumsen 1998); cited from earlier work"}, "[6]": {"details": "Larsen 1998; cited from earlier work"}}, "note": "Read-outs that look alike come from different tables or passages of the source."}
{"smiles": "CC/C=C\\C/C=C\\C/C=C\\C/C=C\\C/C=C\\C/C=C\\CCC(=O)O", "note": "[DHA, (all-Z)-4,7,10,13,16,19-docosahexaenoic acid]", "values": [{"measurement": "change of body weight", "setting": "[1]", "result": "completely stopped the weight gain and even led to reduction of body weight"}, {"measurement": "binding capacity to the PPARα receptor", "setting": "PPARα receptor", "result": "highest binding capacity"}]}
{"smiles": "CC/C=C\\C/C=C\\C/C=C\\C/C=C\\C/C=C\\CCCC(=O)OCC", "note": "[EPA EE]", "values": [{"measurement": "plasma free fatty acid", "setting": "[2]", "result": "had no effect"}]}
{"smiles": "CC/C=C\\C/C=C\\C/C=C\\C/C=C\\C/C=C\\CCCC(=O)O", "note": "[EPA, (all-Z)-5,8,11,14,17-eicosapentaenoic acid]", "values": [{"measurement": "binding capacity to the PPARα receptor", "setting": "PPARα receptor", "result": "highest binding capacity"}]}
{"smiles": "CC/C=C\\C/C=C\\C/C=C\\C/C=C\\C/C=C\\C/C=C\\CC(C)C(=O)OCC", "note": "(stereo not drawn) [PRB-1, α-methyl docosahexaenoic acid ethyl ester]", "values": [{"measurement": "Body wt. gain", "setting": "[3]; 4 months, 0.15% concentration", "result": "22.9 ± 1.1", "unit": "grams"}, {"measurement": "AUCglucose", "setting": "[3]; intraperitoneal glucose tolerance test, 1.5% concentration", "result": "913 ± 68", "unit": "mM × 180 min"}, {"measurement": "Insulin", "setting": "[3]; 4 months, 0.15% concentration", "result": "3.50 ± 0.29", "unit": "ng/mL"}, {"measurement": "Insulin", "setting": "[3]; 4 months, 1.5% concentration", "result": "2.73 ± 0.33", "unit": "ng/mL"}]}
{"smiles": "CC/C=C\\C/C=C\\C/C=C\\C/C=C\\C/C=C\\C/C=C\\CC(SC)C(=O)OCC", "note": "(stereo not drawn) [PRB-6, α-tiomethyl docosahexaenoic acid ethyl ester]", "values": [{"measurement": "release of luciferase from transfected cells", "setting": "PPARγ", "result": "significantly higher release of luciferase"}]}
{"smiles": "CC/C=C\\C/C=C\\C/C=C\\C/C=C\\C/C=C\\C/C=C\\CC(CC)(CC)C(=O)OCC", "note": "[PRB-8, α,α di-ethyl docosahexaenoic acid ethyl ester]", "values": [{"measurement": "body weight (BW)", "setting": "[3]; 2 months intervention, 1.5%, controls 29.6±0.9", "result": "28.0±0.7", "unit": "grams"}, {"measurement": "AUC", "setting": "[3]; 2 months intervention, 1.5%, controls 1074±91", "result": "1031±104"}]}
{"smiles": "CC/C=C\\C/C=C\\C/C=C\\C/C=C\\C/C=C\\CCC(CC)C(=O)O", "note": "(stereo not drawn) [α-ethyl EPA]", "values": [{"measurement": "activation of the nuclear receptor PPARα", "setting": "PPARα", "result": "equal strength as α-methyl EPA"}]}
{"smiles": "CC/C=C\\C/C=C\\C/C=C\\C/C=C\\C/C=C\\CCC(C)C(=O)O", "note": "(stereo not drawn) [α-methyl EPA]", "values": [{"measurement": "inhibition of platelet aggregation", "setting": "platelet aggregation [4]", "result": "stronger inhibitor of platelet aggregation than EPA"}, {"measurement": "inhibition of platelet aggregation", "setting": "platelet aggregation [5]", "result": "stronger inhibitor of platelet aggregation than EPA"}, {"measurement": "incorporation into phospholipids and triglycerids", "setting": "[6]", "result": "is incorporated into phospholipids and triglycerids"}]}
{"smiles": "CC/C=C\\C/C=C\\C/C=C\\C/C=C\\C/C=C\\CC(C)CC(=O)O", "note": "(stereo not drawn) [β-methyl EPA]", "values": [{"measurement": "incorporation into phospholipids and triglycerids", "setting": "[6]", "result": "is incorporated into phospholipids and triglycerids"}]}
